Assay results taken from ChEMBL document CHEMBL1201861, “Genomics of Drug Sensitity in Cancer screening data, Wellcome Trust Sanger Institute”.
pIC50: −log10 of the molar value. Values joined by “and” are separate entries in the source; they are usually repeats but may differ in a detail not shown here. Equal values may be shown once. Where a SMILES comes first, the peptide text is derived from it. The star is where a group is joined. Cbz = O=C(OCc1ccccc1)*

Experiments:
[1] = tested on: LOUCY; assay: cells; format: functional, cell-based, Homo sapiens;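 note: growth inhibition of human LOUCY cells, read out with a cell viability assay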
Description: SANGER: Inhibition of human LOUCY cell growth in a cell viability assay.

[2] = tested on: KMOE-2; assay: cells; format: functional, cell-based, Homo sapiens;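 note: growth inhibition of human KMOE-2 cells, read out with a cell viability assay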
Description: SANGER: Inhibition of human KMOE-2 cell growth in a cell viability assay.

[3] = tested on: NCI-H510A; assay: cells; format: functional, cell-based, Homo sapiens;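 note: growth inhibition of NCI-H510A cells, read out with a cell viability assay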
Description: SANGER: Inhibition of human NCI-H510A cell growth in a cell viability assay.

[4] = tested on: RL95-2; assay: cells; format: functional, cell-based, Homo sapiens;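 note: RL95-2 growth inhibition determined through a cell viability readout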
Description: SANGER: Inhibition of human RL95-2 cell growth in a cell viability assay.

[5] = tested on: JIYOYE; assay: cells; format: functional, cell-based, Homo sapiens
Description: SANGER: Inhibition of human JiyoyeP-2003 cell growth in a cell viability assay.

[6] = tested on: CESS; assay: SANGER: Inhibition of human CESS cell growth in a cell viability assay.; format: functional, cell-based
[7] = tested on: Raji; assay: cells; format: functional, cell-based, Homo sapiens;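 note: cell viability assay measuring inhibition of Raji cell growth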
Description: SANGER: Inhibition of human Raji cell growth in a cell viability assay.

[8] = tested on: EW-22; assay: cells; format: functional, cell-based; conditions: Homo sapiens;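 note: growth inhibition of the EW-22 cell line, measured with a cell viability readout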
Description: SANGER: Inhibition of human EW-22 cell growth in a cell viability assay.

[9] = tested on: U-698-M; assay: cells; format: functional, cell-based, Homo sapiens
Description: SANGER: Inhibition of human U-698-M cell growth in a cell viability assay.

[10] = tested on: CPC-N; assay: cells; format: functional, cell-based, Homo sapiens;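 note: growth inhibition of CPC-N cells, with a cell viability assay as the readout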
Description: SANGER: Inhibition of human CPC-N cell growth in a cell viability assay.

[11] = tested on: NCI-H748; assay: cells; format: functional, cell-based, Homo sapiens;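 note: growth inhibition of NCI-H748 cells, measured by a cell viability assay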
Description: SANGER: Inhibition of human NCI-H748 cell growth in a cell viability assay.

[12] = tested on: NCI-H716; assay: cells; format: functional, cell-based, Homo sapiens;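 note: growth inhibition of human NCI-H716 cells, measured by a cell viability assay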
Description: SANGER: Inhibition of human NCI-H716 cell growth in a cell viability assay.

[13] = tested on: MHH-CALL-2; assay: cells; format: functional, cell-based, Homo sapiens;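 note: growth inhibition of the cell line, read out in a cell viability assay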
Description: SANGER: Inhibition of human MHH-CALL-2 cell growth in a cell viability assay.

[14] = tested on: D-392MG; assay: cells; format: functional, cell-based; conditions: Homo sapiens
[15] = tested on: SIG-M5; assay: cells; format: functional, cell-based, Homo sapiens;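 note: cell viability assay read-out, measuring how strongly growth of cultured human SIG-M5 cells is inhibited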
Description: SANGER: Inhibition of human SIG-M5 cell growth in a cell viability assay.

[16] = tested on: HTC-C3; assay: cells; format: functional, cell-based; conditions: Homo sapiens;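 note: inhibition of cell growth, read out with a cell viability assay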
Description: SANGER: Inhibition of human HTC-C3 cell growth in a cell viability assay.

[17] = tested on: EGI-1; assay: cells; format: functional, cell-based; conditions: Homo sapiens;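 note: cell viability readout used to gauge growth inhibition of EGI-1 cells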
Description: SANGER: Inhibition of human EGI-1 cell growth in a cell viability assay.

[18] = tested on: SJRH30; assay: cells; format: functional, cell-based; conditions: Homo sapiens;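 note: growth inhibition of human SJRH30 cells, read out with a cell viability assay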
Description: SANGER: Inhibition of human SJRH30 cell growth in a cell viability assay.

[19] = tested on: COLO-678; assay: cells; format: functional, cell-based; conditions: Homo sapiens
Description: SANGER: Inhibition of human COLO-678 cell growth in a cell viability assay.

[20] = tested on: CWR22R; assay: cells; format: functional, cell-based; conditions: Homo sapiens, 22Rv1;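 note: growth inhibition of 22Rv1 cells, read out with a cell viability assay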
Description: SANGER: Inhibition of human 22RV1 cell growth in a cell viability assay.

[21] = tested on: MFE-280; assay: cells; format: functional, cell-based; conditions: Homo sapiens;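 note: growth inhibition of MFE-280 cells, determined with a cell viability readout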
Description: SANGER: Inhibition of human MFE-280 cell growth in a cell viability assay.

[22] = tested on: HN; assay: cells; format: functional, cell-based; conditions: Homo sapiens
Description: SANGER: Inhibition of human HN cell growth in a cell viability assay.

[23] = tested on: ME-180; assay: cells; format: functional, cell-based; conditions: Homo sapiens;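 note: cell viability assay measuring growth inhibition of ME-180 cells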
Description: SANGER: Inhibition of human ME-180 cell growth in a cell viability assay.

[24] = tested on: MHH-ES-1; assay: cells; format: functional, cell-based; conditions: Homo sapiens
Description: SANGER: Inhibition of human MHH-ES-1 cell growth in a cell viability assay.

[25] = tested on: KP-N-YN; assay: cells; format: functional, cell-based; conditions: Homo sapiens;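 note: growth inhibition of KP-N-YN cells, read out with a cell viability assay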
Description: SANGER: Inhibition of human KP-N-YN cell growth in a cell viability assay.

[26] = tested on: MDA-MB-453; assay: cells; format: functional, cell-based; conditions: Homo sapiens
Description: SANGER: Inhibition of human MDA-MB-453 cell growth in a cell viability assay.

[27] = tested on: HCT-116; assay: cells; format: functional, cell-based; conditions: Homo sapiens
Description: SANGER: Inhibition of human HCT-116 cell growth in a cell viability assay.

[28] = tested on: Capan-2; assay: cells; format: functional, cell-based; conditions: Homo sapiens;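 note: Capan-2 cell growth inhibition, read out with a viability assay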
Description: SANGER: Inhibition of human Capan-2 cell growth in a cell viability assay.

[29] = tested on: MEL-HO; assay: cells; format: functional, cell-based; conditions: Homo sapiens
Description: SANGER: Inhibition of human MEL-HO cell growth in a cell viability assay.

[30] = tested on: ESS-1; assay: cells; format: functional, cell-based; conditions: Homo sapiens;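 note: growth inhibition of human ESS-1 cells, read out by a cell viability assay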
Description: SANGER: Inhibition of human ESS-1 cell growth in a cell viability assay.

[31] = tested on: LCLC-103H cell line; assay: cells; format: functional, cell-based; conditions: Homo sapiens
Description: SANGER: Inhibition of human LCLC-103H cell growth in a cell viability assay.

[32] = tested on: UO-31; assay: cells; format: functional, cell-based; conditions: Homo sapiens
Description: SANGER: Inhibition of human U031 cell growth in a cell viability assay.

[33] = tested on: DU-145; assay: cells; format: functional, cell-based; conditions: Homo sapiens
Description: SANGER: Inhibition of human DU-145 cell growth in a cell viability assay.

[34] = tested on: Detroit 562; assay: cells; format: functional, cell-based; conditions: Homo sapiens;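 note: growth inhibition of human Detroit 562 cells, read out by a cell viability assay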
Description: SANGER: Inhibition of human Detroit562 cell growth in a cell viability assay.

[35] = tested on: MCF7; assay: cells; format: functional, cell-based; conditions: Homo sapiens;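 note: growth inhibition of human MCF7 cells, read out with a cell viability assay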
Description: SANGER: Inhibition of human MCF7 cell growth in a cell viability assay.

[36] = tested on: A673; assay: cells; format: functional, cell-based; conditions: Homo sapiens;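 note: growth inhibition of human A673 cells, read out through a cell viability assay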
Description: SANGER: Inhibition of human A673 cell growth in a cell viability assay.

[37] = tested on: NCI-H2342; assay: cells; format: functional, cell-based; conditions: Homo sapiens;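 note: growth inhibition of the cancer cell line, determined with a cell viability assay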
Description: SANGER: Inhibition of human NCI-H2342 cell growth in a cell viability assay.

[38] = tested on: AGS; assay: cells; format: functional, cell-based; conditions: Homo sapiens;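 note: growth inhibition of AGS cells, determined with a cell viability assay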
Description: SANGER: Inhibition of human AGS cell growth in a cell viability assay.

[39] = tested on: RPMI-7951; assay: cells; format: functional, cell-based; conditions: Homo sapiens
Description: SANGER: Inhibition of human RPMI-7951 cell growth in a cell viability assay.

[40] = tested on: HGC-27; assay: cells; format: functional, cell-based; conditions: Homo sapiens;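 note: growth inhibition of human HGC-27 cells, read out in a cell viability assay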
Description: SANGER: Inhibition of human HGC-27 cell growth in a cell viability assay.

[41] = tested on: MKN-28; assay: cells; format: functional, cell-based; conditions: Homo sapiens;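 note: cell viability assay read-out, IC50 reflects suppression of growth of human MKN-28 cells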
Description: SANGER: Inhibition of human MKN28 cell growth in a cell viability assay.

[42] = tested on: A-427; assay: cells; format: functional, cell-based; conditions: Homo sapiens;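 note: growth inhibition of human A-427 cells, read out by a cell viability assay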
Description: SANGER: Inhibition of human A427 cell growth in a cell viability assay.

[43] = tested on: SN12C; assay: cells; format: functional, cell-based; conditions: Homo sapiens;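 note: growth inhibition of human SN12C cells, measured by a cell viability assay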
Description: SANGER: Inhibition of human SN12C cell growth in a cell viability assay.

[44] = tested on: UACC-893; assay: cells; format: functional, cell-based; conditions: Homo sapiens
Description: SANGER: Inhibition of human UACC-893 cell growth in a cell viability assay.

[45] = tested on: HT55; assay: cells; format: functional, cell-based; conditions: Homo sapiens;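 note: cell viability readout measuring growth inhibition of human HT55 cells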
Description: SANGER: Inhibition of human HT55 cell growth in a cell viability assay.

[46] = tested on: SK-MEL-24; assay: cells; format: functional, cell-based; conditions: Homo sapiens;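 note: growth inhibition read out by a cell viability assay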
Description: SANGER: Inhibition of human SK-MEL-24 cell growth in a cell viability assay.

[47] = tested on: EFO-27; assay: cells; format: functional, cell-based; conditions: Homo sapiens;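 note: growth inhibition of EFO-27 cells, read out with a cell viability assay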
Description: SANGER: Inhibition of human EFO-27 cell growth in a cell viability assay.

[48] = tested on: KOSC-2; assay: cells; format: functional, cell-based; conditions: Homo sapiens;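 note: growth inhibition of KOSC-2 cells, read out by a cell viability assay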
Description: SANGER: Inhibition of human KOSC-2 cell growth in a cell viability assay.

[49] = tested on: LCLC-97TM1; assay: cells; format: functional, cell-based; conditions: Homo sapiens;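 note: cell viability assay measuring growth inhibition of human LCLC-97TM1 cells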
Description: SANGER: Inhibition of human LCLC-97TM1 cell growth in a cell viability assay.

[50] = tested on: IGR-1; assay: cells; format: functional, cell-based; conditions: Homo sapiens;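 note: growth inhibition of human IGR-1 cells, read out with a cell viability assay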
Description: SANGER: Inhibition of human IGR-1 cell growth in a cell viability assay.

[51] = tested on: SW48; assay: cells; format: functional, cell-based; conditions: Homo sapiens;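 note: growth inhibition of SW48 cells, read out with a cell viability assay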
Description: SANGER: Inhibition of human SW48 cell growth in a cell viability assay.

[52] = tested on: OE33; assay: cells; format: functional, cell-based; conditions: Homo sapiens;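 note: growth inhibition of human OE33 cells, measured by a cell viability assay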
Description: SANGER: Inhibition of human OE33 cell growth in a cell viability assay.

[53] = tested on: LN-405; assay: cells; format: functional, cell-based; conditions: Homo sapiens
Description: SANGER: Inhibition of human LN-405 cell growth in a cell viability assay.

[54] = tested on: NCI-H1693; assay: cells; format: functional, cell-based; conditions: Homo sapiens;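 note: growth inhibition of the human cell line, read out with a cell viability assay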
Description: SANGER: Inhibition of human NCI-H1693 cell growth in a cell viability assay.

[55] = tested on: SKG-IIIa; assay: cells; format: functional, cell-based; conditions: Homo sapiens;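 note: cell growth inhibition, read out with a cell viability assay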
Description: SANGER: Inhibition of human SKG-IIIa cell growth in a cell viability assay.

[56] = tested on: NCI-H596; assay: cells; format: functional, cell-based; conditions: Homo sapiens;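 note: growth inhibition of NCI-H596 cells, read out with a cell viability assay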
Description: SANGER: Inhibition of human NCI-H596 cell growth in a cell viability assay.

[57] = tested on: G-402; assay: cells; format: functional, cell-based; conditions: Homo sapiens
Description: SANGER: Inhibition of human G-402 cell growth in a cell viability assay.

[58] = tested on: TCC-SUP; assay: cells; format: functional, cell-based; conditions: Homo sapiens;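 note: growth inhibition of TCC-SUP cells, read out with a cell viability assay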
Description: SANGER: Inhibition of human TCCSUP cell growth in a cell viability assay.

[59] = tested on: 23132-87; assay: cells; format: functional, cell-based; conditions: Homo sapiens
Description: SANGER: Inhibition of human 23132-87 cell growth in a cell viability assay.

[60] = tested on: SW1783; assay: cells; format: functional, cell-based; conditions: Homo sapiens
Description: SANGER: Inhibition of human SW1783 cell growth in a cell viability assay.

`Cc1ccc(NC(=O)c2ccc(CN3CCN(C)CC3)cc2)cc1Nc1nccc(-c2cccnc2)n1` [IMATINIB] showed a pIC50 ([1]; Homo sapiens, LOUCY) of less than 5.70, a pIC50 ([2]; Homo sapiens, KMOE-2) of less than 5.70 and a pIC50 ([3]; Homo sapiens, NCI-H510A) of less than 5.70. The pIC50 ([4]; Homo sapiens, RL95-2) was less than 5.70, the pIC50 ([5]; Homo sapiens, JIYOYE) was less than 5.70 and the pIC50 ([6]; Homo sapiens, CESS) was less than 5.70. The pIC50 ([7]; Homo sapiens, Raji) was less than 5.70, the pIC50 [8] was less than 5.70 and the pIC50 ([9]; Homo sapiens, U-698-M) was less than 5.70. For the same compound, the pIC50 ([10]; Homo sapiens, CPC-N) was less than 5.70, the pIC50 ([11]; Homo sapiens, NCI-H748) was less than 5.70 and the pIC50 ([12]; Homo sapiens, NCI-H716) was less than 5.70. The pIC50 ([13]; Homo sapiens, MHH-CALL-2) was less than 5.70.

`Nc1ccccc1NC(=O)c1ccc(CNC(=O)OCc2cccnc2)cc1` [ENTINOSTAT] showed a pIC50 [14] of less than 5.30, a pIC50 ([1]; Homo sapiens, LOUCY) of 6.20 and a pIC50 ([2]; Homo sapiens, KMOE-2) of 5.54. For the same compound, the pIC50 ([15]; Homo sapiens, SIG-M5) was 6.24, the pIC50 ([3]; Homo sapiens, NCI-H510A) was 5.69 and the pIC50 ([4]; Homo sapiens, RL95-2) was 5.67. It also gave a pIC50 ([5]; Homo sapiens, JIYOYE) of 5.87, a pIC50 ([6]; Homo sapiens, CESS) of 6.09 and a pIC50 ([7]; Homo sapiens, Raji) of less than 5.30. For the same compound, the pIC50 [8] was less than 5.30, the pIC50 ([9]; Homo sapiens, U-698-M) was less than 5.30 and the pIC50 ([10]; Homo sapiens, CPC-N) was 6.09. For the same compound, the pIC50 ([11]; Homo sapiens, NCI-H748) was 6.99, the pIC50 ([12]; Homo sapiens, NCI-H716) was less than 5.30 and the pIC50 ([13]; Homo sapiens, MHH-CALL-2) was 5.90.

In the case of `COc1cc(N2CCC(N3CCN(C)CC3)CC2)ccc1Nc1ncc(Cl)c(Nc2ccccc2S(=O)(=O)C(C)C)n1` [TAE-684], the pIC50 ([1]; Homo sapiens, LOUCY) was less than 5.70, the pIC50 ([2]; Homo sapiens, KMOE-2) was less than 5.70 and the pIC50 ([15]; Homo sapiens, SIG-M5) was 6.54. The pIC50 ([3]; Homo sapiens, NCI-H510A) was less than 5.70, the pIC50 ([4]; Homo sapiens, RL95-2) was 6.30 and the pIC50 ([5]; Homo sapiens, JIYOYE) was less than 5.70. It also gave a pIC50 ([6]; Homo sapiens, CESS) of less than 5.70, a pIC50 ([7]; Homo sapiens, Raji) of less than 5.70 and a pIC50 [8] of less than 5.70. The pIC50 ([9]; Homo sapiens, U-698-M) was less than 5.70, the pIC50 ([10]; Homo sapiens, CPC-N) was 5.73 and the pIC50 ([11]; Homo sapiens, NCI-H748) was less than 5.70. The pIC50 ([12]; Homo sapiens, NCI-H716) was 5.97 and the pIC50 ([13]; Homo sapiens, MHH-CALL-2) was 7.53.

In the case of `COc1ccc(N(C(=O)Oc2c(C)cccc2C)c2ccnc(Nc3ccc(N4CCN(C)CC4)cc3)n2)c(OC)c1`, the pIC50 ([1]; Homo sapiens, LOUCY) was less than 5.29, the pIC50 ([2]; Homo sapiens, KMOE-2) was less than 5.29 and the pIC50 ([15]; Homo sapiens, SIG-M5) was less than 5.29. It also gave a pIC50 ([3]; Homo sapiens, NCI-H510A) of less than 5.29, a pIC50 ([4]; Homo sapiens, RL95-2) of 5.88 and a pIC50 ([5]; Homo sapiens, JIYOYE) of less than 5.29. For the same compound, the pIC50 ([6]; Homo sapiens, CESS) was less than 5.29, the pIC50 ([7]; Homo sapiens, Raji) was less than 5.29 and the pIC50 ([9]; Homo sapiens, U-698-M) was less than 5.29. The pIC50 ([10]; Homo sapiens, CPC-N) was less than 5.29, the pIC50 ([11]; Homo sapiens, NCI-H748) was less than 5.29 and the pIC50 ([12]; Homo sapiens, NCI-H716) was less than 5.29. It also gave a pIC50 ([13]; Homo sapiens, MHH-CALL-2) of less than 5.29.

In the case of `Cc1ccc(-n2nc(C(C)(C)C)cc2NC(=O)Nc2ccc(OCCN3CCOCC3)c3ccccc23)cc1` [DORAMAPIMOD], the pIC50 [16] was less than 5.00, the pIC50 [17] was less than 5.00 and the pIC50 [18] was less than 5.00. The pIC50 [14] was less than 5.00, the pIC50 [19] was less than 5.00 and the pIC50 [20] was less than 5.00. It also gave a pIC50 [21] of less than 5.00, a pIC50 [22] of less than 5.00 and a pIC50 [23] of less than 5.00. The pIC50 [24] was less than 5.00, the pIC50 [25] was 5.09 and the pIC50 [26] was less than 5.00. The pIC50 [27] was less than 5.00, the pIC50 [28] was less than 5.00 and the pIC50 [29] was less than 5.00. The pIC50 [30] was less than 5.00, the pIC50 [31] was less than 5.00 and the pIC50 [32] was less than 5.00. The pIC50 [33] was 5.40, the pIC50 [34] was less than 5.00 and the pIC50 [35] was less than 5.00. For the same compound, the pIC50 [36] was less than 5.00, the pIC50 [37] was less than 5.00 and the pIC50 [38] was less than 5.00. It also gave a pIC50 [39] of less than 5.00, a pIC50 [40] of less than 5.00 and a pIC50 [41] of less than 5.00. For the same compound, the pIC50 [42] was less than 5.00, the pIC50 [43] was less than 5.00 and the pIC50 [44] was less than 5.00. The pIC50 [8] was less than 5.00, the pIC50 [45] was less than 5.00 and the pIC50 [46] was less than 5.00. For the same compound, the pIC50 [47] was less than 5.00, the pIC50 [48] was less than 5.00 and the pIC50 [49] was less than 5.00. It also gave a pIC50 [50] of less than 5.00, a pIC50 [51] of less than 5.00 and a pIC50 [52] of less than 5.00. It also gave a pIC50 [53] of less than 5.00, a pIC50 [54] of less than 5.00 and a pIC50 [55] of less than 5.00. For the same compound, the pIC50 [56] was less than 5.00, the pIC50 [57] was less than 5.00 and the pIC50 [58] was less than 5.00. For the same compound, the pIC50 [59] was less than 5.00 and the pIC50 [60] was less than 5.00.

`CC(C)C[C@@H](C=O)NC(=O)[C@H](CC(C)C)NC(=O)[C@H](CC(C)C)NC(=O)OCc1ccccc1` [MG-132] (Cbz-Leu-Leu-Leu-aldehyde) was tested, and the pIC50 [14] was 6.72, the pIC50 ([1]; loucy) was 6.59 and < 6.00 and the pIC50 ([2]; Homo sapiens, KMOE-2) was less than 6.00. The pIC50 ([2]; kmoe-2) was less than 6.00, the pIC50 [25] was less than 6.00 and the pIC50 ([15]; sig-m5) was less than 6.00. For the same compound, the pIC50 ([3]; Homo sapiens, NCI-H510A) was less than 6.00, the pIC50 ([3]; nci-h510a) was less than 6.00 and the pIC50 ([4]; rl95-2) was less than 6.00. The pIC50 ([5]; jiyoye) was less than 6.00, the pIC50 ([6]; cess) was 6.77 and < 6.00 and the pIC50 ([7]; Homo sapiens, Raji) was less than 6.00. The pIC50 ([7]; raji) was less than 6.00, the pIC50 [8] was less than 6.00 and the pIC50 ([9]; u-698-m) was less than 6.00. For the same compound, the pIC50 ([10]; cpc-n) was less than 6.00, the pIC50 ([11]; Homo sapiens, NCI-H748) was less than 6.00 and the pIC50 ([11]; nci-h748) was less than 6.00. It also gave a pIC50 ([12]; nci-h716) of less than 6.00 and a pIC50 ([13]; mhh-call-2) of less than 6.00.
